≈ marks a conversion by molar mass, not a printed value.
Key:
[1] = biological target: T1, Palmitoleoyl-protein carboxylesterase NOTUM (Homo sapiens, UniProt Q6P988, C330S); test: Inhibition of human Notum (S81 to T451 residues) Cys330Ser mutant expressed in HEK293S GnTI cells using OPTS as substrate incubated for 40 mins by fluorescence based assay
[2] = biological target: T1, Palmitoleoyl-protein carboxylesterase NOTUM; test: Inhibition of human Notum (S81 to T451 residues) Cys330Ser mutant expressed in HEK293S GnTI cells at 100 uM using OPTS as substrate incubated for 40 mins by fluorescence based assay relative to control
[3] = Chromatographic hydrophobicity index, log D of the compound at pH 7.4; assay type: physicochemical; conditions: buffer
[4] = Aqueous solubility at pH 7.4; assay type: physicochemical; conditions: buffer
[5] = Intrinsic clearance in mouse liver microsomes at 1 uM measured up to 60 mins in presence of NADPH by LC-MS/MS analysis; assay type: ADME, Microsome; conditions: read-out: CLH
[6] = Apparent permeability from apical to basolateral side in MDCK2-MDR1 cells at 10 uM measured up to 120 mins by LC-MS/MS analysis; assay type: ADME, cell-based, Canis lupus familiaris; conditions: dog, MDCK-MDR1
[7] = Apparent permeability from basolateral to apical side in MDCK2-MDR1 cells at 10 uM measured up to 120 mins by LC-MS/MS analysis; assay type: ADME, cell-based, Canis lupus familiaris; conditions: dog, MDCK-MDR1
[8] = Efflux ratio of apparent permeability in MDCK2-MDR1 cells at 10 uM measured up to 120 mins by LC-MS/MS analysis; assay type: ADME, cell-based, Canis lupus familiaris; conditions: dog, MDCK-MDR1

T1 sequence (Q6P988 20-496 C330S limits assumed): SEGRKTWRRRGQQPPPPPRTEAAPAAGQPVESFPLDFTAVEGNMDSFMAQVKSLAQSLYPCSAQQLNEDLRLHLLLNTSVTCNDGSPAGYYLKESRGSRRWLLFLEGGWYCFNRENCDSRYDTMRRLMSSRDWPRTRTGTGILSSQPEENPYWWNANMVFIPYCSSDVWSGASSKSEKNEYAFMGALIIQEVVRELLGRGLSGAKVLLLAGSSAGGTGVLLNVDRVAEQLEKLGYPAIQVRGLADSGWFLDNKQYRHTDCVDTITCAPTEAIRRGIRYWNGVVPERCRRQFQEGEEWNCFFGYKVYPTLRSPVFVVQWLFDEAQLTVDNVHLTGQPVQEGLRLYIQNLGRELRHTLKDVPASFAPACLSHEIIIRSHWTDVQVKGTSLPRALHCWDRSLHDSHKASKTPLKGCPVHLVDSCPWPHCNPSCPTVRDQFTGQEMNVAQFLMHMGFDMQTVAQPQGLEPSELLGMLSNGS

| Structure (SMILES) | IC50 [1] [µM] | further results |
| --- | --- | --- |
| Cc1cc(C(=O)O)c(C)n1C1CC1 | 6.3 |  |
| Cc1cc(C(=O)O)c(C)n1-c1ccc(Cl)cc1Cl | 0.43 |  |
| O=C(O)C1CCN(c2ccc(F)c(C(F)(F)F)c2)C1 (racemic) | 2.5 |  |
| Cc1c(C(=O)O)ccn1-c1ccccc1 | 3.8 |  |
| Cc1cc(C(=O)O)c(C)n1-c1cccc(C#N)c1F | 0.63 |  |
| Cc1c[nH]cc1C(=O)O | 100 | inhibition at 100 µM [2]: 50% |
| O=C(O)C1CCN(c2cc(Cl)cc(Cl)c2)C1 (racemic) | 11 |  |
| Cc1cc(C(=O)O)c(C)n1-c1cc(Cl)cc(Cl)c1 | 0.85 |  |
| O=C(O)C1CCN(c2ccc(C(F)(F)F)c(Cl)c2)C1 (racemic) | 8.5 |  |
| O=C(O)C1CCN(c2ccc(Cl)cc2)C1 (racemic) | 19 |  |
| O=C(O)C1CCN(c2cccc(Cl)c2)C1 (racemic) | 14 |  |
| Cc1cc(C(=O)O)c(C)[nH]1 | > 100 | inhibition at 100 µM [2]: < 20% |
| Cc1cc(C(=O)O)c(C)n1-c1ccccc1F | 3.3 |  |
| O=C(O)C1CCN(c2ccc(Cl)c(Cl)c2)C1 (racemic) | 1.2 |  |
| N#Cc1cccc(N2CCC(C(=O)O)C2)c1 (racemic) | 42 |  |
| Cc1cc(C(=O)O)c(C)n1-c1ccc(Cl)cc1 | 0.86 |  |
| O=C(O)C1CCN(c2c(Cl)cccc2Cl)C1 (racemic) | 26 |  |
| Cc1cc(C(=O)O)c(C)n1-c1ccccc1Cl | 2.3 |  |
| Cc1ccccc1-n1c(C)cc(C(=O)O)c1C | 2.2 |  |
| O=C(O)C1CCN(c2ccc(Cl)c(Cl)c2Cl)C1 (racemic) | 0.6 |  |
| O=C(O)C1CCN(c2ccccc2Cl)C1 (configuration not stated) | 19 |  |

| Structure (SMILES) | IC50 [1] [µM] | further results |
| --- | --- | --- |
| O=C(Nc1ccccc1)C1CCN(c2ccc(Cl)c(C(F)(F)F)c2)C1 (configuration not stated) | 1 |  |
| CN1CN(C(=O)C2CCN(c3ccc(Cl)c(C(F)(F)F)c3)C2)CC1=O (configuration not stated) | 1.4 |  |
| COc1cccc(-n2c(C)cc(C(=O)O)c2C)c1 | 1.5 |  |
| Cc1[nH]c(C(F)(F)F)cc1C(=O)O | 6.7 |  |
| Cc1cccc(-n2c(C)cc(C(=O)O)c2C)c1 | 1.5 |  |
| Cc1cc(C(=O)O)c(C)n1-c1cccc(Cl)c1Cl | 0.22 |  |
| Cc1cc(C(=O)O)c(C)n1-c1ccc(Cl)c(Cl)c1 | 0.27 |  |
| Cc1[nH]ccc1C(=O)O | > 100 | inhibition at 100 µM [2]: < 20% |
| Cc1cc(C(=O)O)c(C)n1C | > 100 | inhibition at 100 µM [2]: 20 to 40% |
| COCCNC(=O)C1CCN(c2ccc(Cl)c(C(F)(F)F)c2)C1 (configuration not stated) | 3.5 |  |
| O=C(O)C1CCN(c2ccc(C(F)(F)F)cc2)C1 (racemic) | 50 |  |
| Cc1cc(C(=O)O)c(C)n1-c1cccc(Cl)c1C#N | 2 |  |
| O=C(O)c1c[nH]c(C(F)(F)F)c1 | > 100 | inhibition at 100 µM [2]: < 20% |
| Cc1cc(C(=O)O)c(C)n1CC1CC1 | 12.7 |  |
| Cc1cc(C(=O)O)c(C)n1-c1ccc(F)cc1 | 1.9 |  |
| O=C(O)C1CCN(c2ccc(F)cc2)C1 (racemic) | 15 |  |
| Cc1cc(C(=O)O)c(C)n1-c1ccccc1 | 1.7 |  |
| Cc1c(C(=O)O)cc(C(F)(F)F)n1-c1ccccc1 | 22 |  |
| CC(C)c1cccc(N2CCC(C(=O)O)C2)c1 (racemic) | 57 |  |
| O=C(O)c1cc[nH]c1 | > 100 | inhibition at 100 µM [2]: < 20% |
| COc1c(Cl)cccc1-n1c(C)cc(C(=O)O)c1C | 0.8 |  |

| Structure (SMILES) | IC50 [1] [µM] | further results |
| --- | --- | --- |
| O=C(C1CCN(c2ccc(Cl)c(C(F)(F)F)c2)C1)N1CC(F)(F)C1 (configuration not stated) | 0.26 | chromatographic logD [3]: 4; solubility [4]: 19 µM (≈ 7.01 µg/mL); microsomal CLint at 1 µM [5]: 21 µL/min/mg; Papp A→B at 2 h, 10 µM [6]: 8 ×10⁻⁶ cm/s; Papp B→A at 2 h, 10 µM [7]: 10 ×10⁻⁶ cm/s; efflux ratio at 2 h, 10 µM [8]: 1.2 |
| Cc1cc(C(=O)O)c(C)n1-c1cccc(C2CC2)c1 | 0.58 |  |
| O=C(C1CCN(c2ccc(Cl)c(C(F)(F)F)c2)C1)N1CCCC1 (configuration not stated) | 0.41 |  |
| Cc1cc(C(=O)O)c(C)n1-c1ccc(C(F)(F)F)c(Cl)c1 | 1.5 |  |
| Cc1cc(C(=O)O)c(C)n1-c1cccc(C(C)C)c1F | 0.15 | chromatographic logD [3]: 3.1; solubility [4]: 51 µM (≈ 14 µg/mL); microsomal CLint at 1 µM [5]: 52 µL/min/mg; Papp A→B at 2 h, 10 µM [6]: 46 ×10⁻⁶ cm/s; Papp B→A at 2 h, 10 µM [7]: 43 ×10⁻⁶ cm/s; efflux ratio at 2 h, 10 µM [8]: 0.93 |
| Cc1cc(C(=O)O)c(C)n1-c1cccc(C(C)C)c1 | 0.36 |  |
| Cc1cc(C(=O)O)c(C)n1-c1cccc(C2CC2)c1F | 0.2 |  |
| Cc1ccc(-n2c(C)cc(C(=O)O)c2C)cc1 | 2 |  |
| FC(F)(F)c1cc(N2CCC(c3nnco3)C2)ccc1Cl (configuration not stated) | 24 |  |
| O=C(O)C1CCN(c2cccc(C(F)(F)F)c2)C1 (racemic) | 11 |  |
| Cc1cc(C(=O)O)c(C)n1-c1cccc(C(F)(F)F)c1 | 1.5 |  |
| O=C(C1CCN(c2ccc(Cl)c(C(F)(F)F)c2)C1)N1CC2COCC2C1 (configuration not stated) | 3.1 |  |
| Cc1cc(C(=O)O)c(C)n1-c1ccc(Cl)c(C(F)(F)F)c1 | 2.1 |  |
| O=C(O)C1CCN(c2ccccc2F)C1 (configuration not stated) | 11 to 11.3 |  |
| Cc1cc(C(=O)O)c(C)n1-c1cccc(C(C)(C)C)c1 | 0.46 |  |
| CN1CCN(C(=O)C2CCN(c3ccc(Cl)c(C(F)(F)F)c3)C2)CC1=O (configuration not stated) | 3.1 |  |
| Cc1cc(C(=O)O)c(C)n1-c1cccc(F)c1 | 1.5 |  |
| Cc1cc(C(=O)O)c(C)n1-c1cccc(Cl)c1F | 0.38 |  |
| O=C(C1CCN(c2ccc(Cl)c(C(F)(F)F)c2)C1)N1CCOCC1 (configuration not stated) | 9.7 |  |
| CN(C)C(=O)C1CCN(c2ccc(Cl)c(C(F)(F)F)c2)C1 (configuration not stated) | 1.2 |  |
| O=C(O)C1CCN(c2ccc(Cl)cc2Cl)C1 (racemic) | 10 |  |

| Structure (SMILES) | IC50 [1] [µM] | further results |
| --- | --- | --- |
| Cc1c(C(=O)O)cc(C(F)(F)F)n1Cc1ccccc1 | > 100 | inhibition at 100 µM [2]: 20 to 40% |
| Cc1cc(C(=O)O)c[nH]1 | 100 | inhibition at 100 µM [2]: 50% |
| O=C(O)C1CCN(c2cccc(OC(F)(F)F)c2)C1 (racemic) | 63 |  |
| Cc1cc(C(=O)O)c(C)n1-c1cccc(C#N)c1 | 3.1 |  |
| O=C(O)C1CCN(c2cccc(Cl)c2Cl)C1 (racemic) | 8 |  |
| Cc1cc(C(=O)O)c(C)n1-c1cccc(Cl)c1 | 0.43 |  |
| O=C(O)[C@H]1CCN(c2ccc(Cl)c(C(F)(F)F)c2)C1 |  | chromatographic logD [3]: 1.5; solubility [4]: > 595 µM; microsomal CLint at 1 µM [5]: 2.5 µL/min/mg; Papp A→B at 2 h, 10 µM [6]: 39 ×10⁻⁶ cm/s; Papp B→A at 2 h, 10 µM [7]: 43 ×10⁻⁶ cm/s |
| Cc1cccc(N2CCC(C(=O)O)C2)c1 (racemic) | 49 |  |
| O=C(O)C1CCN(c2cccc(C(F)(F)F)c2F)C1 (configuration not stated) | 6.8 |  |
| O=C(O)C1CCN(c2cc(Cl)ccc2Cl)C1 (racemic) | 7.9 |  |
| Cc1cc(C(=O)O)c(C)n1-c1cc(Cl)ccc1Cl | 1.7 |  |
| O=c1[nH]nc(C2CCN(c3ccc(Cl)c(C(F)(F)F)c3)C2)o1 (configuration not stated) | 4.2 | chromatographic logD [3]: 3.5; solubility [4]: 69 µM (≈ 23 µg/mL); microsomal CLint at 1 µM [5]: 10 µL/min/mg; Papp A→B at 2 h, 10 µM [6]: 13 ×10⁻⁶ cm/s; Papp B→A at 2 h, 10 µM [7]: 19 ×10⁻⁶ cm/s; efflux ratio at 2 h, 10 µM [8]: 1.5 |
| Cc1cc(C(=O)O)c(C)n1-c1c(Cl)cccc1Cl | 2.3 |  |
| Cc1c(C(=O)O)ccn1Cc1ccccc1 | 3.1 |  |
| Cc1c[nH]c(C)c1C(=O)O | 100 | inhibition at 100 µM [2]: 50% |
| Cc1cc(C(=O)O)c(C)n1Cc1ccccc1 | 14 |  |
| CCOc1cccc(-n2c(C)cc(C(=O)O)c2C)c1 | 0.64 |  |
| CNC(=O)C1CCN(c2ccc(Cl)c(C(F)(F)F)c2)C1 (configuration not stated) | 1.3 |  |

From ChEMBL document CHEMBL4619806, “Screening of a Custom-Designed Acid Fragment Library Identifies 1-Phenylpyrroles and 1-Phenylpyrrolidines as Inhibitors of Notum Carboxylesterase Activity” (J Med Chem, 2020)
